According to ChEMBL document CHEMBL1201862, “PubChem BioAssay data set” (2004):
Active and inactive are the calls of the source. For most assays here, no stated cut-off is given here; in the data, actives have a measured EC50 and inactives only a lower limit.

How the values were obtained:
[1] = luciferase reporter signal suppression in cells – H4 neuroglioma cells, luminescence, dose response (AID 1990); assay type: functional, cell-based
[2] = luciferase reporter signal reduction – luminescence, H4-C neuroglioblastoma cells, dose response (AID 2458); assay type: functional, cell-based;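 further: H4 neuroglioblastoma cells stably carrying a luciferase reporter gene fusion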
BJ [3] = test: BJ-TERT fibroblast viability loss – cell-based, RAS-independent, luminescence, dose response (AID 1933); assay type: functional; settings: Homo sapiens
cells = assay type: functional, cell-based
[4] = Luminescence Cell-Based Dose Response HTS to Identify Inhibitors of 5'UTR Stem-Loop Driven Prion Protein mRNA Translation in H4 Neuroglioblastoma Cells. [Related pubchem assays: 1827 (Project Summary), 1813 (Primary HTS)]; assay type: functional
[5] = alpha-synuclein stem-loop luciferase translation blockers – H4 neuroglioma cells, luminescence, confirmation (AID 1988); assay type: functional, cell-based
BJ [6] = test: cells; assay type: functional, cell-based; settings: Homo sapiens
[7] = Luminescence-based dose response cell-based high throughput screening assay for cytotoxic compounds using the IEC-6 intestinal epithelial cell line. [Related pubchem assays: 1858 (Summary AID.), 1825 (Counterscreen.), 1907 (Confirmation screen.)]; assay type: functional
BJ [8] = test: BJ-TERT-LT-ST fibroblast viability loss – cell-based, RAS-independent, luminescence, dose response (AID 1935); assay type: functional; settings: Homo sapiens;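 further: BJ fibroblasts immortalized with TERT plus LT and ST oncogenes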
[9] = DRD fibroblast viability loss – cell-based, non-viral oncogenic, luminescence, dose response (AID 1934); assay type: functional; settings: Homo sapiens
[10] = alpha-synuclein stem-loop translation blockers – luminescence, H4 neuroglioblastoma cells, dose confirmation, confirmation (AID 2454); assay type: functional, cell-based;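 further: H4 neuroglioblastoma cells carrying an alpha-synuclein 5'UTR luciferase reporter; potency for inhibition of the luciferase signal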
[11] = molecular target: Peroxisome proliferator-activated receptor gamma/Nuclear receptor coactivator 1 (Homo sapiens, UniProt P37231); test: (§1) TR-FRET dose response biochemical High Throughput Screening assay for agonists of the steroid receptor coactivator 1 (SRC-1) recruitment by the peroxisome proliferator-activated receptor gamma (PPAR gamma): non-selective agonists. [Related pubchem assays (depositor defined):AID1300, AID1808, AID504735, AID631]; assay type: protein assay
Bcl-2-like protein 10 = Bcl-2-like protein 10 (Homo sapiens, UniProt Q9HD36); test: Bcl-B/TR3 peptide binding disruption – biochemical, fluorescence polarization, FITC-TR3 peptide, selectivity assay for Bfl-1 inhibitor project, primary screen (AID 748);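 further: fluorescence polarization from a fluorescein-labelled TR3 peptide binding purified Bcl-B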
[12] = molecular target: Peroxisome proliferator-activated receptor gamma/Nuclear receptor coactivator 3 (Homo sapiens, UniProt P37231); test: as §1, with “3 (SRC-3)” for “1 (SRC-1)”, “assays: 1301 (Confirmation screen.), 1048 (Primary screen.)]” for “assays (depositor defined):AID1300, AID1808, AID504735, AID631]”; assay type: functional
Estrogen receptor beta = Estrogen receptor beta (Homo sapiens, UniProt Q92731);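 further: recombinant ER-beta bound to coactivator SRC1 peptide in presence of estradiol agonist; inhibitors block coactivator peptide binding and lower the FRET signal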
[13] = molecular target: Peroxisome proliferator-activated receptor gamma/Nuclear receptor coactivator 2 (Homo sapiens, UniProt P37231); test: TR-FRET dose response biochemical High Throughput Screening assay for agonists of the steroid receptor coactivator 2 (SRC-2) recruitment by the peroxisome proliferator-activated receptor gamma (PPAR gamma): non-selective agonists. [Related pubchem assays: 1297, 1032 ]; assay type: functional
[14] = molecular target: Mitogen-activated protein kinase 10 (Homo sapiens, UniProt P53779); test: Dose response biochemical screening assay for inhibitors of c-Jun N-Terminal Kinase 3 (JNK3). [Related pubchem assays: 746 ]
[15] = NIH-3T3 fibroblast cytotoxicity, dose response, cytotoxicity control, cell-based, fluorescence, Alamar Blue, secondary assay (AID 2327); assay type: functional;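 further: NIH-3T3 mouse fibroblasts cultured with fluconazole at 8 µg/mL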
[16] = fluconazole-exposed Candida albicans growth modulators – fluorescence, retest, confirmation (AID 2467); assay type: functional, cell-based
[17] = molecular target: NACHT, LRR and PYD domains-containing protein 3 (Homo sapiens, UniProt Q96P20); test: NALP3 inhibitors in yeast, dose response, luminescent (AID 488799); assay type: functional
[18] = molecular target: Transitional endoplasmic reticulum ATPase (Homo sapiens, UniProt P55072, C522A); test: C522A mutant p97 ATPase inhibitors, dose response, counter-screen for p97 inhibitor project, biochemical, luminescence (AID 1544)
[19] = molecular target: Transitional endoplasmic reticulum ATPase (Homo sapiens, UniProt P55072); test: p97 ATPase inhibitors, dose response, biochemical (AID 1534)
[20] = molecular target: Induced myeloid leukemia cell differentiation protein Mcl-1 (Homo sapiens, UniProt Q07820); assay type: functional
Troponin, cardiac muscle = Troponin, cardiac muscle (Homo sapiens, UniProt P19429+P45379+P63316); test: compounds desensitizing RTF to calcium – biochemical, fluorescence, cardiac regulated thin filaments, triplicate IC50, dose response (AID 504742); assay type: protein-complex assay
[21] = tested on: Streptococcus sp. 'group A'; test: Streptococcus pyogenes SK(-)GAS viability under kanamycin – luminescence, BacTiterGlo, confirmation, counter-screen for streptokinase expression inhibitor project, dose response (AID 1900); assay type: functional, organism-based
Streptococcus [22] = test: Luminescence Microorganism-Based Dose Response Follow up to Identify Compounds Cytotoxic to Streptococcus. [Related pubchem assays: 1677 (Project Summary), 1915, 1914, 1902 (Retest at Dose), 1900 (Counter Screen), 1662 (Primary HTS)]; assay type: functional, organism-based
Streptokinase A [23] = molecular target: T1, Streptokinase A (Streptococcus pyogenes serotype M1, UniProt P10520); test: viability-normalized secreted streptokinase activity reduction – plasminogen activation absorbance, OD405, dose response (AID 1914); assay type: functional, Streptococcus pyogenes M1 GAS;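 further: secreted streptokinase activity via plasminogen activation per viability signal from cell pellet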
T1 sequence (P10520 whole entry): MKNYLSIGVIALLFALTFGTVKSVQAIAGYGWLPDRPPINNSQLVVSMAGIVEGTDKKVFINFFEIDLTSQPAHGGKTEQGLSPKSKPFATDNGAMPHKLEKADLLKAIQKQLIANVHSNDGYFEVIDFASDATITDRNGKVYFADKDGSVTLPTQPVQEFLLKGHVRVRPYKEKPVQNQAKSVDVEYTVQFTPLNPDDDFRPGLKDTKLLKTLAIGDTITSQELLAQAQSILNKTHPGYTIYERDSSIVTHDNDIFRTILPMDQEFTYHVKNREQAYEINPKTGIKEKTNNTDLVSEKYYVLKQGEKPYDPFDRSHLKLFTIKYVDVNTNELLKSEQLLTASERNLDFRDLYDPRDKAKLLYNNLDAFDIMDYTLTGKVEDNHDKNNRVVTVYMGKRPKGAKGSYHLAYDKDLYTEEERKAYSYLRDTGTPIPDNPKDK

Streptokinase A [24] = molecular target: T1, Streptokinase A; test: Absorbance Microorganism-Based Dose Response Follow up to Identify Inhibitors of Streptokinase Expression. [Related pubchem assays: 1677 (Project Summary), 1915, 1914, 1902 (Retest at Dose), 1900 (Counter Screen), 1662 (Primary HTS)]; assay type: functional, Streptococcus pyogenes M1 GAS
Streptococcus [25] = test: GAS bacterial viability reduction – luminescence, BacTiter-Glo, strain UMAA2166, counter-screen for streptokinase expression inhibitor project, dose response (AID 2477); assay type: functional, organism-based
Streptococcus [26] = test: GAS UMAA2166 growth inhibition – luminescence, BacTiterGlo, counter-screen for streptokinase expression inhibitor project, dose response (AID 1915); assay type: functional, organism-based;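 further: potency for reduction of bacterial viability or growth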
[27] = Absorbance Microorganism-Based Dose Response Follow up to Identify Inhibitors of Streptokinase Expression. [Related pubchem assays: 1677 (Project Summary), 1915, 1914, 1902 (Retest at Dose), 1900 (Counter Screen), 1662 (Primary HTS)]

Peroxisome proliferator-activated receptor gamma/Nuclear receptor coactivator 2, sequence (P37231 whole entry): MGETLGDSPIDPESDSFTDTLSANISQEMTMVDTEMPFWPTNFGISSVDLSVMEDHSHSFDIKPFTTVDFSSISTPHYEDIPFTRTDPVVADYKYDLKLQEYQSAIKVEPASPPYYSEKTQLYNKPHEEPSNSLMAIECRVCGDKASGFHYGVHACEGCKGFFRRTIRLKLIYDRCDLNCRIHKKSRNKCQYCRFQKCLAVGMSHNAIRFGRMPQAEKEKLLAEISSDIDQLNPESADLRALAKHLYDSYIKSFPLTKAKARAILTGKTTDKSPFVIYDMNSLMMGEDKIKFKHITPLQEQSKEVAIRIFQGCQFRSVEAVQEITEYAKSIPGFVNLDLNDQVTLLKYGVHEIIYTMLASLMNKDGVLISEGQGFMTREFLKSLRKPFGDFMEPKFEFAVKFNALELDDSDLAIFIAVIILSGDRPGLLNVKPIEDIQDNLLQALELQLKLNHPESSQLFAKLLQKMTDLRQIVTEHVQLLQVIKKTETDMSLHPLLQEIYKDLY
Peroxisome proliferator-activated receptor gamma/Nuclear receptor coactivator 2, sequence (Q15596 whole entry, further chain): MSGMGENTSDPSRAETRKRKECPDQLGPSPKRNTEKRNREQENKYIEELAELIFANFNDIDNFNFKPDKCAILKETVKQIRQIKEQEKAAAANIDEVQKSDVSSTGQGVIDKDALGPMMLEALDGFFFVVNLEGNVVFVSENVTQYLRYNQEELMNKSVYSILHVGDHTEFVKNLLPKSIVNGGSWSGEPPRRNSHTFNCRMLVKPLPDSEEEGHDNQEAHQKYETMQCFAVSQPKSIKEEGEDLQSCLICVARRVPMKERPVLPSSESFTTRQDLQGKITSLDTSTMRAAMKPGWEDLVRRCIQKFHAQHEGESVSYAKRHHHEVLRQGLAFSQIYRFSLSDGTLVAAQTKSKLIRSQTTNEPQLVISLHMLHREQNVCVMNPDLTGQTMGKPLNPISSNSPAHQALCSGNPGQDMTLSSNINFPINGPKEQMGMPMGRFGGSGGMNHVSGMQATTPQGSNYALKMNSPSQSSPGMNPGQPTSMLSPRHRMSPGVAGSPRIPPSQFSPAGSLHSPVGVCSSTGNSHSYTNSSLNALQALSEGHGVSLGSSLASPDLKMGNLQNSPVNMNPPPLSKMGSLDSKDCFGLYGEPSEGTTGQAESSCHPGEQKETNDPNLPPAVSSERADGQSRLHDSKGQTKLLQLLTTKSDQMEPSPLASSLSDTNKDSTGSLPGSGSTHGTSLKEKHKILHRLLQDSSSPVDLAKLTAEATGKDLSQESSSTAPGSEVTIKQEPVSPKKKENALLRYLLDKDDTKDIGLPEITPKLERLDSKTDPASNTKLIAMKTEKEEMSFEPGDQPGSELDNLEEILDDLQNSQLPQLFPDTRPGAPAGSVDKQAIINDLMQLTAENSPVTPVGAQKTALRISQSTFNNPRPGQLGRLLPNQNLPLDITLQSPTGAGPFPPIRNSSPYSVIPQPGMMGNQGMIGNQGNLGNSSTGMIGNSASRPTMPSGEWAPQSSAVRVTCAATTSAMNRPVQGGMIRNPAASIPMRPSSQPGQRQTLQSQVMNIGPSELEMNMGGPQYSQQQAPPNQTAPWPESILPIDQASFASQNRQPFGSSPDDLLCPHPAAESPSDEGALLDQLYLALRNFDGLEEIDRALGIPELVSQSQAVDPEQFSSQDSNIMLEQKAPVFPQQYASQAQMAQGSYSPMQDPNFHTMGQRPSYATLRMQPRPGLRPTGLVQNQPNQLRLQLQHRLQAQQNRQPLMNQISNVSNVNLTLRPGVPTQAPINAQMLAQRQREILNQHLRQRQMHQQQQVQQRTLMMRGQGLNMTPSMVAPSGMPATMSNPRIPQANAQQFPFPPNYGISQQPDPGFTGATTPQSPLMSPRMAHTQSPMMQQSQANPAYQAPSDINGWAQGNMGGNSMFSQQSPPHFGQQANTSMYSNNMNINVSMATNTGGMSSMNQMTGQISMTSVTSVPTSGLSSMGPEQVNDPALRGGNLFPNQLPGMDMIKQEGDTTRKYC
Peroxisome proliferator-activated receptor gamma/Nuclear receptor coactivator 3, sequence (P37231 whole entry): as the sequence (P37231 whole entry) above
Peroxisome proliferator-activated receptor gamma/Nuclear receptor coactivator 3, sequence (Q9Y6Q9 whole entry, further chain): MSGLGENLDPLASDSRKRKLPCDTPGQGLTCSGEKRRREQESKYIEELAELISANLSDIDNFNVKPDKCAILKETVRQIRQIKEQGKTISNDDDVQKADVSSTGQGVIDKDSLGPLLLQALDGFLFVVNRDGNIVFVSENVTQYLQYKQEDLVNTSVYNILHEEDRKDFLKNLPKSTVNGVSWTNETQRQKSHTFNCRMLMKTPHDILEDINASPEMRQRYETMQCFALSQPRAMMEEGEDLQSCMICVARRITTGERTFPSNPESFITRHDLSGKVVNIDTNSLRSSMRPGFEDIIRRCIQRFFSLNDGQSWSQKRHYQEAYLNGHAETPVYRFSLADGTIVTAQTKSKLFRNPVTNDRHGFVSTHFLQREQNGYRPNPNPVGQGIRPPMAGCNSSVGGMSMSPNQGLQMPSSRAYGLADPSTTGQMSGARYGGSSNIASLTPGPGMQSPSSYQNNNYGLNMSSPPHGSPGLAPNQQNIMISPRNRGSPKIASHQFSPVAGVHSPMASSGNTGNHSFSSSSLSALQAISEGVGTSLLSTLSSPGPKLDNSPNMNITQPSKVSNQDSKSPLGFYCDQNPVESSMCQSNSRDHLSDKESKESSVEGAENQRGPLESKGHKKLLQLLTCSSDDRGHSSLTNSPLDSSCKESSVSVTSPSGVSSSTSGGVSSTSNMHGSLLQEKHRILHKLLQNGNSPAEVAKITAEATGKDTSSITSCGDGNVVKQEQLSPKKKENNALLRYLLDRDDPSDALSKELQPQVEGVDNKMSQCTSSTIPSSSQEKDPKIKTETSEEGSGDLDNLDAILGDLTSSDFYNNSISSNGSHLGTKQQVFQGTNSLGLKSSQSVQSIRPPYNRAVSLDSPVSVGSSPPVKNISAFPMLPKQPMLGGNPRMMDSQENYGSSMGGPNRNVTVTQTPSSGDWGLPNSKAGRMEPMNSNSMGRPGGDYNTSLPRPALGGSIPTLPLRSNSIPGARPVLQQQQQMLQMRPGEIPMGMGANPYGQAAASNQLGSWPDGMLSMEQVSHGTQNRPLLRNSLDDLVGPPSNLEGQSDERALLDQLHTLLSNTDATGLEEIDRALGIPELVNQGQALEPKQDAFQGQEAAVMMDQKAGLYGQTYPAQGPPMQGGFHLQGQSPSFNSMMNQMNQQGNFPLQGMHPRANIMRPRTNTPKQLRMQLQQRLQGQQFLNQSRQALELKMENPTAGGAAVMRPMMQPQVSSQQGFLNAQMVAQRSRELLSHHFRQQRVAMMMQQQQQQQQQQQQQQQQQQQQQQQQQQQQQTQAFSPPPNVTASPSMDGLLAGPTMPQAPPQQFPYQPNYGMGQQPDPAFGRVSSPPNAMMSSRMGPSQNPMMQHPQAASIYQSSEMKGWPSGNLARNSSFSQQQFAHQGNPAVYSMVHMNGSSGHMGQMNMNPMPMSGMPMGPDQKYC
Transitional endoplasmic reticulum ATPase (Homo sapiens, UniProt P55072), sequence (P55072 whole entry): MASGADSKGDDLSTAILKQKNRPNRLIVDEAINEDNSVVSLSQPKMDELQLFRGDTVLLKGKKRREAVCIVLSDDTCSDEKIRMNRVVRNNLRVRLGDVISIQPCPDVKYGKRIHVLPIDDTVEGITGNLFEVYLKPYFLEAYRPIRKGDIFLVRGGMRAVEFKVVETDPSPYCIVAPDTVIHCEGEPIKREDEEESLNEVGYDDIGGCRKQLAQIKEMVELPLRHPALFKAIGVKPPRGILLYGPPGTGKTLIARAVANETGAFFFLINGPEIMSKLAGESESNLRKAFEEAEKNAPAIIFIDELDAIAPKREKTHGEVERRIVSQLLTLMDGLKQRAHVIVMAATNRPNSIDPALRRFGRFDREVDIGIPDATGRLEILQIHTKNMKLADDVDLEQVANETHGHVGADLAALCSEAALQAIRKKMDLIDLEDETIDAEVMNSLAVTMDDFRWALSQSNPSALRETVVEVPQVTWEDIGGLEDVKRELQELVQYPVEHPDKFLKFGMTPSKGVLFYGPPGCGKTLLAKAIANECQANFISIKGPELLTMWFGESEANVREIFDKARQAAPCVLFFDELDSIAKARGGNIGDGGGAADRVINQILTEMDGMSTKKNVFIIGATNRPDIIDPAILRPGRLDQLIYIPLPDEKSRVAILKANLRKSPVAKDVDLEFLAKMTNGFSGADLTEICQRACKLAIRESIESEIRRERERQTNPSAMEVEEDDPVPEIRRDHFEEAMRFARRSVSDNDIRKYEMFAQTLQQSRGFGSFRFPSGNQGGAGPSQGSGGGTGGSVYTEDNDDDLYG
Bcl-2-like protein 10, sequence (Q9HD36 whole entry): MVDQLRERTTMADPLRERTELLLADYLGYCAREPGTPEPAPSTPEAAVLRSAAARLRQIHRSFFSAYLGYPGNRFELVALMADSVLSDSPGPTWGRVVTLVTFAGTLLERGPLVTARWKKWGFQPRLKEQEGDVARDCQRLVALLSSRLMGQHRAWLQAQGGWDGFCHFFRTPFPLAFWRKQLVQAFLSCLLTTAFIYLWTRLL

**Q.** Which results are given for `COc1cc(-c2noc(C)c2/C=C/c2ccc(N)cc2)cc(OC)c1OC`?
**A.** EC50 [1]: < 0.1 µM (active); EC50 [2]: 0.509 µM (active); EC50 (BJ [3]): 0.344 µM (active); EC50 (cells): 0.277 µM (active); EC50 [4]: < 0.1 µM (active); EC50 [5]: < 0.1 µM (active); EC50 (BJ [6]): 0.469 µM (inconclusive); IC50 [7]: 0.964 µM (active); EC50 (BJ [8]): 0.38 µM (inconclusive); EC50 [9]: 0.362 µM (active); EC50 [10]: 0.335 µM (active)

**Q.** For `CC(=O)c1sc2nc(SCC(=O)N3CCCCC3)[nH]c(=O)c2c1C`, which EC50 [11] is on record?
**A.** > 79.4 µM (inactive)

**Q.** And the IC50 (Bcl-2-like protein 10)?
**A.** > 100 µM (inactive)

**Q.** What about the EC50 [12] of the same molecule?
**A.** > 79.4 µM (not active)

**Q.** What about the IC50 (Estrogen receptor beta) of the same molecule?
**A.** 14.6 µM (active)

**Q.** What about the EC50 [13] of the same molecule?
**A.** > 79.4 µM (not active)

**Q.** And the IC50 [14]?
**A.** > 93.1 µM (not active)

**Q.** With `c1ccc(Sc2cccc3ccccc23)c(CNC2=NCCN2)c1` as the molecule, how does the EC50 [15] read?
**A.** > 150 µM (inactive)

**Q.** And the EC50 [16]?
**A.** 3.8 µM (active)

**Q.** And the IC50 [17]?
**A.** 11.7 µM (active)

**Q.** With `O=C(O[C@@H]1OC2COC(=O)c3cc(O)c(O)c(O)c3-c3c(cc(O)c(O)c3O)C(=O)O[C@@H]([C@H]1O)[C@@H]2O)c1cc(O)c(O)c(O)c1` as the molecule, how does the IC50 [18] read?
**A.** > 50 µM (not active)

**Q.** And the IC50 [19]?
**A.** 4.2 µM (active)

**Q.** And the IC50 [20]?
**A.** 4.48 µM (active)

**Q.** And the IC50 (Troponin, cardiac muscle)?
**A.** 0.677 µM (active)

**Q.** For `CCCOc1ccc(-c2nc(OC)c3ccccc3n2)cc1`, which EC50 [21] is on record?
**A.** 17.9 µM (active)

**Q.** And the EC50 (Streptococcus [22])?
**A.** > 500 µM (not active)

**Q.** And the EC50 (Streptokinase A [23])?
**A.** 6.02 µM (active)

**Q.** And the EC50 (Streptokinase A [24])?
**A.** 3.83 µM (active)

**Q.** What about the EC50 (Streptococcus [25]) of the same molecule?
**A.** > 500 µM (not active)

**Q.** And the EC50 (Streptococcus [26])?
**A.** > 150 µM (not active)

**Q.** What about the EC50 [27] of the same molecule?
**A.** 4.03 µM (active)
